Source: patent publication US20150105252A1, “SUBSTITUTED PYRAZOLES AS HERBICIDES” (E I DU PONT DE NEMOURS AND COMPANY, priority 2013, published 2015)

Assays:
[1] = system: cocklebur; test: Test F preemergence; format: in vivo, Xanthium strumarium; conditions: scale 0 to 100
Text: Seeds of plant species selected from corn (Zea mays), soybean (Glycine max), velvetleaf (Abutilon theophrasti), lambsquarters (Chenopodium album), wild poinsettia (Euphorbia heterophylla), pigweed, palmer (palmer pigweed, Amaranthus palmeri), common waterhemp (Amaranthus rudis), surinam grass (Brachiaria decumbens), large crabgrass (Digitaria sanguinalis), crabgrass, Brazil (Brazilian crabgrass, Digitaria horizontalis), fall panicum (Panicum dichotomiflorum), giant foxtail (Setaria faberii), green foxtail (Setaria viridis), goosegrass (Eleusine indica), johnsongrass (Sorghum halepense), common ragweed (Ambrosia elation), barnyardgrass (Echinochloa crus-galli), southern sandbur (Cenchrus echinatus), arrowleaf sida (Sida rhombifolia), Italian ryegrass (Lolium multiflorum), dayflower, VA (Virginia (VA) dayflower, Commelina virginica), field bindweed (Convolvulus arvensis), cocklebur (common cocklebur, Xanthium strumarium), morningglory (Ipomoea coccinea), nightshade (eastern black nightshade, Solanum ptycanthum), kochia (Kochia scoparia), yellow nutsedge (Cyperus esculentus), and hairy beggarticks (Bidens pilosa), were planted into a silt loam soil and treated preemergence with test chemicals formulated in a non-phytotoxic solvent mixture which included a surfactant.
At the same time, plants from these crop and weed species and also horseweed (Canada horseweed, Conyza canadensis), smartweed (ladysthumb smartweed, Polygonum persicaria), waterhemp_RES1, (ALS & Triazine resistant common waterhemp, Amaranthus rudis), and waterhemp_RES2, (ALS & HPPD resistant common waterhemp, Amaranthus rudis) were treated with postemergence applications of test chemicals formulated in the same manner. Plants ranged in height from 2 to 18 cm for postemergence treatments (1- to 4-leaf stage). Treated plants and controls were maintained in a greenhouse for 14 to 21 days, after which time all species were compared to controls and visually evaluated. Plant response ratings, summarized in Table F, are based on a scale of 0 to 100 where 0 is no effect and 100 is complete control. […]

[2] = system: blackgrass; test: Test A postemergence; format: in vivo, Alopecurus myosuroides
How it was run: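 Both timings tested concurrently in loam/sand soil: preemergence by directed soil spray, postemergence on plants of 2–10 cm at the one- to two-leaf stage. Greenhouse holding period was approximately 10 days before visual injury assessment (0–100, 0 = no effect).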

[3] = system: signalgrass; test: Test E preemergence; format: in vivo, Brachiaria platyphylla; conditions: 21 days, scale 0 to 100
Text: (§1) Seeds of plant species selected from bermudagrass (Cynodon dactylon), Surinam grass (Brachiaria decumbens), crabgrass, large (large crabgrass, Digitaria sanguinalis), crabgrass, naked (naked crabgrass, Digitaria nuda), foxtail, green (green foxtail, Setaria viridis), johnsongrass (Sorghum halepense), kochia (Kochia scoparia), morningglory (pitted morningglory, Ipomoea lacunosa), nutsedge, purple (purple nutsedge, Cyperus rotundus), ragweed (common ragweed, Ambrosia elation), mustard, black (black mustard, Brassica nigra), guineagrass (Panicum maximum), dallisgrass (Paspalum dilatatum), barnyardgrass (Echinochloa crus-galli), sandbur (southern sandbur, Cenchrus echinatus), sowthistle (common sowthistle, Sonchus oleraceous), ryegrass, Italian (Italian ryegrass, Lolium multiflorum), signalgrass (broadleaf signalgrass, Brachiaria platyphylla), dayflower, VA (Virginia (VA) dayflower, Commelina virginica), bluegrass (annual bluegrass, Poa annua), quackgrass (Elytrigia repens), mallow (common mallow, Malva sylvestris), buckwheat, wild (wild buckwheat, Polygonum convolvulus), leafy spurge (Euphorbia esula), common chickweed (Stellaria media), wild poinsettia (Euphorbia heterophylla), pigweed, palmer (palmer pigweed, Amaranthus palmeri), and pigweed (redroot pigweed, Amaranthus retroflexus) were planted into a blend of loam soil and sand and treated preemergence with test chemicals formulated in a non-phytotoxic solvent mixture which included a surfactant.
(§2) Treated plants and controls were maintained in a greenhouse for 21 days, after which time all species were compared to controls and visually evaluated. Plant response ratings, summarized in Table E, are based on a scale of 0 to 100 where 0 is no effect and 100 is complete control. A dash (-) response means no test result.

[4] = system: pigweed, palmer; test: Test E preemergence; format: in vivo, Amaranthus palmeri; conditions: 21 days, scale 0 to 100
Text: as §1, §2

[5] = Postemergence, 500 g ai/ha, 0 to 100 scale (0 no effect, 100 complete control)
[6] = postemergence, 125 g ai/ha, about 10 days, visual rating on 0 to 100 scale (0 no effect, 100 complete control)

Structure (SMILES) | Blackgrass plant response rating [2, 5] | Blackgrass plant response rating [2, 6] | Plant response rating, Signalgrass ([3]; 16 g ai/ha) | Plant response rating, Signalgrass ([3]; 31 g ai/ha) | Plant response rating, Signalgrass ([3]; 62 g ai/ha) | Plant response rating, Signalgrass ([3]; 125 g ai/ha) | Plant response rating, Signalgrass ([3]; 250 g ai/ha) | also measured
CCc1cc(C(=O)NC2CC2)nn1Cc1ccnc(OCC(F)(F)F)c1 [Compound 200] | – | – | – | – | – | – | – | Plant response rating, Cocklebur ([1]; 16 g ai/ha): 20; Plant response rating, Cocklebur ([1]; 62 g ai/ha): 30; Plant response rating, Cocklebur ([1]; 250 g ai/ha): 30
CCOc1cc(C(=O)NC2CC2)nn1Cc1ccnc(OC(F)F)c1 [Compound 133] | 100 | 90 | – | – | – | – | – | –
CCc1cc(C(=O)NCC(F)(F)F)nn1Cc1ccnc(C(F)(F)F)c1 [Compound 78, 5-ethyl-N-(2,2,2-trifluoroethyl)-1-[[(2-trifluoromethyl)-4-pyridinyl]methyl]-1H-pyrazole-3-carboxamide] | – | – | 70 | 100 | 100 | 100 | 100 | Plant response rating, Pigweed, Palmer ([4]; 16 g ai/ha): 40; Plant response rating, Pigweed, Palmer ([4]; 31 g ai/ha): 80; Plant response rating, Pigweed, Palmer ([4]; 62 g ai/ha): 100; Plant response rating, Pigweed, Palmer ([4]; 125 g ai/ha): 100; Plant response rating, Pigweed, Palmer ([4]; 250 g ai/ha): 100
CCc1cc(C(=O)NC(C)C)nn1Cc1ccnc(C(F)(F)F)c1 [Compound 103] | – | – | 65 | 80 | 100 | 100 | 100 | –
CCCc1cc(C(=O)NCC(F)(F)F)nn1Cc1ccnc(C(F)(F)F)c1 [Compound 105] | – | – | 75 | 98 | 98 | 98 | 98 | –
CCOc1cc(C(=O)NCC(F)(F)F)nn1Cc1ccnc(C(F)(F)F)c1 [Compound 104] | – | – | 35 | 75 | 100 | 100 | 100 | –
CCONC(=O)c1cc(CC)n(Cc2cc(C(F)(F)F)no2)n1 [Compound 125] | 90 | 30 | – | – | – | – | – | –
CCc1cc(C(=O)NCC(F)(F)F)nn1Cc1cc(OC(F)F)nn1C [Compound 206] | 50 | 0 | – | – | – | – | – | –
CCOc1cc(C(=O)NC2CC2)nn1Cc1ccnc(C(F)(F)F)c1 [Compound 189] | – | – | 60 | 95 | 100 | – | – | Plant response rating, Signalgrass ([3]; 4 g ai/ha): 0; Plant response rating, Signalgrass ([3]; 8 g ai/ha): 30
